Measurements reported in patent US4496551A (priority 1983, dated 1985).

Assays:
Type in all cases: in vivo
[1] = system: Pyricularia oryzae; experiment: whole plant or invertebrate; details: 168 h, read-out: % Control of Rice Blast
[2] = system: Helminthosporium maydis; experiment: southern corn leaf blight control on corn seedlings; details: Bipolaris maydis, 168 h
Experimental: Compounds of the previous example were again dissolved in acetone in an amount equal to 6% of the final volume and then suspended at a concentration of 100 ppm in purified water containing 250 ppm of the surfactant TREM 014 (polyhydric alcohol esters). This suspension was sprayed to the point of run-off on corn seedlings. The following day, the plants were inoculated with a spore suspension of Helminthosporium maydis, causal agent of southern corn leaf blight, and incubated in a saturated humidity chamber at 20° for 24 hours and then in a growth room for an additional 7 days, when disease ratings were made. Treated plants from successful treatments had few lesions while the untreated plants had numerous lesions on each leaf.

[3] = system: Venturia inaequalis; experiment: apple scab control on apple seedlings; details: Venturia inaequalis; 100 ppm
Experimental: Compounds of this invention were dissolved in acetone in an amount equal to 6% of the final volume and then suspended at a concentration of 100 ppm in purified water containing 250 ppm of the surfactant TREM 014 (polyhydric alcohol esters). This suspension was sprayed to the point of run-off on apple seedlings. The following day, the plants were inoculated with a spore suspension of the fungus Venturia inaequalis, causal agent of apple scab, and incubated in a saturated humidity chamber at 20° for 24 hours and then in a growth room for an additional 10-12 days. Treated plants from successful treatments had few or no apple scab lesions when compared to untreated plants which were covered with scab lesions.

[4] = system: Erysiphe cichoracearum; experiment: cucumber powdery mildew control on cucumber seedlings; details: Golovinomyces cichoracearum, 168 h, 7 days
Experimental: (§1) Compounds of the previous examples were again dissolved in acetone in an amount equal to 6% of the final volume and then suspended at a concentration of 100 ppm in purified water containing 250 ppm of the surfactant TREM 014 (polyhydric alcohol esters). This suspension was sprayed to the point of run-off on cucumber seedlings. The following day, the plants were inoculated with a spore suspension of the fungus Erysiphe cichoracearum, causal agent of cucumber powdery mildew, and incubated in a growth room for 7 days. Disease ratings were then made. Treated plants from successful treatments had little or no powdery mildew in contrast to untreated plants which were covered with powdery mildew.

[5] = system: Pythium aphanadermatum; experiment: Pythium control on coated corn seeds; details: 504 h, 2 gm/kg seed, 49° F. 2 weeks then 70° F. 1 week
Experimental: Several compounds of the previous examples were incorporated into a proprietary formulation and used to coat corn seeds at a rate of 2 gm/kg seed. After being thoroughly coated, the seeds were allowed to air dry at room temperature. The seeds were then planted into soil amended with a mixture of the fungus Pythium aphanadermatum, sand, and corn meal at a rate sufficient to kill most untreated seeds. The seeds were held at 49° F. for 2 weeks and then at 70° F. for 1 additional week. After this time disease ratings were made.

[6] = system: Cercospora arachidicola; experiment: peanut early leafspot control on peanut seedlings; details: Mycosphaerella arachidis, 336 h
Experimental: Compounds of the previous examples were again dissolved in acetone in an amount equal to 6% of the final volume and then suspended at a concentration of 100 ppm in purified water containing 250 ppm of the surfactant TREM 014 (polyhydric alcohol esters). This suspension was sprayed to the point of run-off on peanut seedlings. The following day, the plants were inoculated with a spore suspension of Cercospora arachidicola, causal agent of peanut early leafspot, and incubated in a saturated humidity chamber at 27° for 24 hours and then in a growth room for an additional 14 days, when disease ratings were made. Treated plants from successful treatments had few or no leafspots while the untreated plants had numerous leafspots on each leaf.

[7] = system: Rhizoctonia solani; experiment: rice sheath blight control on rice seedlings; details: Rhizoctonia solani, 168 h, 7 days
Experimental: Several compounds of the previous examples were again dissolved in acetone in an amount equal to 6% of the final volume and then suspended at a concentration of 100 ppm in purified water containing 250 ppm of the surfactant TREM 014 (polyhydric alcohol esters). This suspension was sprayed to the point of run-off on rice seedlings. The following day, the plants were inoculated with a mixture of bran and the mycelium of Rhizoctonia solani, causal agent of sheath blight of rice, and incubated in a growth room for 7 days. Disease ratings were then made. Treated plants from successful treatments had little sheath blight in contrast to untreated plants which were covered with sheath blight.

[8] = system: Phytophthora infestans; experiment: whole plant or invertebrate; details: Phytophthora infestans, in Solanum lycopersicum, 168 h, read-out: % Control of Tomato Late Blight
[9] = system: Puccinia recondita var. tritici; experiment: wheat leaf rust control on wheat seedlings; details: 100 ppm, sprayed day before inoculation
Experimental: Compounds of this invention were dissolved in acetone in an amount equal to 6% of the final volume and then suspended at a concentration of 100 ppm in purified water containing 250 ppm of the surfactant TREM 014 (polyhydric alcohol esters). This suspension was sprayed to the point of run-off on wheat seedlings. The following day, the plants were inoculated with a spore suspension of Puccinia recondita var. tritici, causal agent of wheat leaf rust, and incubated in a saturated humidity chamber at 20° for 24 hours and then in a growth room for an additional 7 days, when disease ratings were made. Treated plants from successful treatments had few or no rust pustules while the untreated plants had numerous rust pustules on each leaf.

[10] = system: Erysiphe graminis; experiment: barley powdery mildew control on barley seedlings; details: Blumeria graminis, 168 h; 100 ppm, 7 days
Experimental: as §1, with “Several compounds” for “Compounds”, “barley” for “cucumber”, “graminis,” for “cichoracearum,”, “plants” for “plants from successful treatments”

[11] = system: cucumber seedlings; experiment: phytotoxicity on cucumber seedlings; design: key: G: growth reduction; H: hormonal effects; details: 100 ppm
[12] = system: Pythium aphanadermatum; experiment: Pythium control on coated cotton seeds; details: 168 h; for pest or weed control at 2000 mg/kg: 2 gm/kg seed, 1 week
Text: Several compounds of the previous examples were incorporated into a proprietary formulation and used to coat cotton seeds at a rate of 2 gm/kg seed. After being thoroughly coated, the seeds were allowed to air dry at room temperature. The cotton seeds were then planted into soil amended with the fungus Pythium aphanadermatum, sand, and corn meal at a rate sufficient to kill most untreated seeds. The seeds were held at room temperature for 1 week, after which time disease ratings were made.

SMILES	pest or weed control at 100 ppm [1] [%]	pest or weed control at 100 ppm [2] [%]	pest or weed control at 100 ppm [3] [%]	pest or weed control at 100 ppm [4] [%]	pest or weed control at 2000 mg/kg [5] [%]	pest or weed control at 100 ppm [6] [%]	pest or weed control at 100 ppm [7] [%]	pest or weed control at 100 ppm [8] [%]	pest or weed control at 100 ppm [9] [%]	pest or weed control at 100 ppm [10] [%]	Phytotoxicity (growth reduction or hormonal effects) [11]	pest or weed control at 500 mg/kg ([12]; 0.5 gm/kg seed) [%]	pest or weed control at 2000 mg/kg [12] [%]
C[Si](C)(Cn1ccnc1)c1cccc2ccccc12 [(1H-Imidazol-1-ylmethyl)dimethyl(1-naphthalenyl)silane]	0	0	40	100	27	0	0	0	0	0			
C[Si](C)(Cn1ccnc1)c1ccccc1C(F)(F)F [(1H-Imidazol-1-ylmethyl)dimethyl(2-trifluoromethylphenyl)silane]	0	90	0	100		0	80	0	0		G		
C[Si](C)(Cn1ccnc1)c1ccc(Cl)cc1 [(4-Chlorophenyl)dimethyl(1H-imidazol-1-ylmethyl)silane]	0	0	0	100	25	0	0	0	50			18	
C[Si](C)(Cn1ccnc1)c1cccc(C(F)(F)F)c1 [Dimethyl(1H-imidazol-1-ylmethyl)(3-trifluoromethylphenyl)silane]	0	0	0	80	0	50	0	70	0				0
COc1ccccc1[Si](C)(C)Cn1ccnc1 [(1H-Imidazol-1-ylmethyl)(2-methoxyphenyl)dimethylsilane]	0	0	60	100		0	90	0	0		G		
C[Si](Cn1ccnc1)(c1ccc(Cl)cc1)c1ccc(Cl)cc1 [bis(4-Chlorophenyl)(1H-imidazol-1-ylmethyl)methylsilane]	0	60	0	100		0	0	0	0	100			
C[Si](C)(Cn1ccnc1)c1ccccc1Cl [(2-Chlorophenyl)(1H-imidazol-1-ylmethyl)dimethylsilane]	0	0	90	100		80	0	0	0				0
CCCC[Si](C)(Cn1ccnc1)c1ccc(-c2ccccc2)cc1 (stereo not shown) [(1,1'-Biphenyl-4-yl)butyl(1H-imidazol-1-ylmethyl)methylsilane]	90	0	100	100	0	90	90	0	100				0
Cc1ccc([Si](C)(C)Cn2ccnc2)cc1 [(1H-Imidazol-1-ylmethyl)dimethyl(4-methylphenyl)silane]	0	0	0	100	30	0	0	0	0		G		0
C[Si](C)(Cn1ccnc1)c1ccc(OC(F)(F)F)cc1 [Dimethyl(1H-imidazol-1-ylmethyl)(4-trifluoromethoxyphenyl)silane]	90	0	50	100		90	0	0	100		G		
C[Si](C)(Cn1ccnc1)c1cc(Cl)cc(Cl)c1 [(3,5-Dichlorophenyl)dimethyl(1H-imidazol-1-ylmethyl)silane]	0	0	50	100		0	90	0	0		G		
CCCC[Si](C)(Cn1ccnc1)c1ccc(F)cc1 (stereo not shown) [Butyl(4-fluorophenyl)(1H-imidazol-1-ylmethyl)methylsilane]	100	0	80	100	0	0	80	0	0				0
